Results on three molecules are retold here after publication PMC5131915, “Platinum(II) Iodido Complexes of 7-Azaindoles with Significant Antiproliferative Effects: An Old Story Revisited with Unexpected Outcomes” (PLoS ONE, 2016).

Series [1] has as its system L1210 mouse lymphocytic leukaemia cells. The series can be described thus: In vivo antitumour activity testing, L1210 lymphocytic leukaemia model. Further details: species or system mice. To be noted: i.p.; for tolerability / signs of toxicity (e.g. weight loss) / percentage of mean survival time T/C / mean survival time ± SD: dose equimolar to cisplatin 2 mg/kg; for mean survival time ± SD: 10 days after implantation, control 17.4±1.6 days. How it is done:
The experimental animals used for in vivo antitumour testing were female DBA/2 SPF mice obtained from Charles Rivers Laboratories. The animals were housed in the Sealsafe NEXT—IVC Blue Line Housing System (Tecniplast, Italy) to ensure the best possible experimental conditions and eliminate the risk of possible intergroup cross-contamination, and kept in Plexiglas cages at constant temperature (22±1°C) and relative humidity of 55±5% for one-week adaptation period before the start of the experiment. All experimental procedures were performed according to the National Institute of Health (NIH) Guide for the Care and Use of Laboratory Animals. The protocol was approved by the Expert Committee on the Protection of Animals Against Cruelty at the University of Veterinary and Pharmaceutical Sciences Brno (Permit Number: 71/2013). The number of pharmacological interventions was limited to the necessary minimum in order to minimize the suffering of animals, which were observed regularly for the symptoms connected with the tumour progression. […] No animals had to be sacrificed due to the above mentioned criteria of humane treatment and no post-application deaths within the 2 hours after the application were observed during the experiment. […] The animal tissues for the ex vivo experiments and histological evaluations were taken post mortem, in case of surviving animals immediately after they were sacrificed by the lethal dose of carbon dioxide inhalation, immediately followed by the cervical dislocation.
The animals were monitored several times a day for the signs of tumour progression and distress development.

In series [2] the test system is caspase 3 (Cas-3), active form p17. Nature of the series: Ex vivo Western blot of tumour tissues, cleaved caspase 3. The class given is in vivo, mice. Conditions: pooled tumour samples. Background: A western blot detects proteins with antibodies after separation by electrophoresis.
Method: Frozen tumour samples were homogenized by a bench blender IKA DI25 (IKA-Werke, Germany) in the presence of a lysis buffer [cOmplete Protease Inhibitor Cocktail (Roche, Germany), 50 mM Tris-HCl pH 7.5, 1 mM EGTA, 1 mM EDTA, 1 mM sodium orthovanadate, 50 mM sodium fluoride, 5 mM sodium pyrophosphate, 270 mM sucrose, 0.5% (v/v) Triton X-100]. Subsequently, the blended samples were centrifuged at 9.000 g at 4°C for 15 min. The supernatants were collected and the protein concentration was measured by the Brandford’s method using the Brandford reagent (Amresco, USA) according to the manufacturer’s manual. The measured samples were stored at -80°C for the following experiments.
The expression of caspase 3, MCL-1, p53, and β-actin as loading control were evaluated by Western blot analysis and immunodetection. Lysates were mixed with a denaturing loading dye [250 mM Tris-HCl pH 6.8, 5% (v/v) β-mercaptoethanol, 10% (w/v) sodium dodecyl sulfate, 30% (v/v) glycerol, 0.04% (w/v) bromophenol blue], heated for 5 min at 70°C. […] The final protein amount was 50 μg per well. After protein separation in the gel, they were transferred on the Immun-Blot polyvinylidene difluoride membrane 0.2 μm (Bio-Rad, USA). Then, the membrane was blocked by 5% (w/v) BSA in TBST [10 mM Tris-HCl pH 7.5, 150 mM NaCl, 0.1% (v/v) Tween-20]. […] HRP was detected by Clarity Western ECL Substrate (Bio-Rad, USA) using chemiluminescent documentation system Syngene PXi-4 (UK).
The test system of a further series is calf thymus DNA (ctDNA). Nature of the series: Fluorescence quenching experiments on the EtBr/ctDNA system. The class given is binding. Conditions: for Stern-Volmer quenching constant KSV: TRIS/NaCl buffer pH 7.2; for apparent binding constant Kapp: estimated from Q50. How it is done: A volume of 405 μL of 154 μM ctDNA and 10 μL of 3 mM EtBr were mixed together in TRIS/NaCl buffer (pH = 7.2) and incubated for 30 min at ambient temperature. […] The mixtures were incubated at ambient temperature for next 15 min. The maxima of the emitted fluorescence of EtBr/ctDNA system have been observed at 613 nm (using the 546 nm excitation wavelength) and the intensity of fluorescence was recorded on a AvaSpec HS1024x122TE fluorescence spectrometer using a 1 cm quartz cell. […] Due to the indirect nature of the fluorescence quenching method, the value of KSV can be used for the estimation of the apparent binding constant Kapp of the complex by using the equation KEB [EtBr] = Kapp [Q50], where [Q50] is the concentration of the complex causing the 50% reduction in the intensity of fluorescence of the EtBr/DNA supramolecular complex, KEB = 1.0 × 10^6 M^−1 and [EtBr] = 10 μM [27].

The subject of series [3] is A549 lung carcinoma cells. The series can be described thus: In vitro cytotoxicity testing (MTT assay), A549. The class given is cell-based, human. Conditions: 24 h drug exposure, no recovery, read-out: IC50±SD, A549. As to the method:
(§1) A2780 ovarian carcinoma, A2780R cisplatin-resistant ovarian carcinoma, HOS osteosarcoma, G361 malignant melanoma, MCF7 breast carcinoma, A549 lung carcinoma, HeLa cervix carcinoma, 22Rv1 prostate carcinoma and Caco-2 colorectal carcinoma human cancer cell lines were purchased from the European Collection of Cell Cultures (ECACC), while the human non-cancerous hepatocytes (Hep) were supplied by Biopredic Intl. The cell lines were cultured, according to the suppliers`instructions, in RPMI-1640 medium supplemented with 10% of fetal calf serum, 1% of 2 mM glutamine, and 1% penicillin/streptomycin. All cell lines were grown as adherent monolayers at 37°C and 5% CO2 in a humidified atmosphere.
(§2) The cells were seeded to 96-well culture plates, pre-incubated in drug-free media at 37°C for 24 h and treated typically with the 0.01–50.0 μM solutions, prepared from the stock solutions by dilution with medium, for 24 h at 37°C. […] In parallel with compounds 1–8 and the reference drugs, the cells were also treated with vehicle (0.1% DMF in medium; negative control) and Triton X-100 (1%; positive control) to assess the minimal and maximal cell damage, respectively. The MTT assay was used to determine the cell viability; MTT = 3-(4,5-dimethylthiazol-2-yl)-2,5-diphenyltetrazolium bromide. A concentration of the formed dye was evaluated spectrophotometrically at 540 nm (TECAN, Schoeller Instruments LLC).
(§3) The data were expressed as the percentage of viability, where 100% and 0% represents the treatments with negative and positive controls, respectively. The data from the cancer cells were acquired from three independent experiments (conducted in triplicate) using cells from different passages. The resulting IC50 values (μM) were calculated from viability curves and the results are presented as arithmetic mean±SD.
(In general: Formazan colour is commonly taken as a measure of viable cells.)

The next series relates to HOS osteosarcoma cells. The series can be described thus: In vitro cytotoxicity testing (MTT assay), HOS. The class given is cell-based, human. Conditions: for IC50: 24 h drug exposure, no recovery, MTT, read-out: IC50±SD, HOS; for selectivity factor IC50(Hep)/IC50(cancer cell line): HOS; for times more potent than cisplatin: HOS cell line. As to the method:
as §1, §2, §3

Another series relates to pUC19 plasmid dsDNA. The series can be described thus: Gel electrophoresis studies of interaction with pUC19 plasmid dsDNA. Further details: species or system Escherichia coli. Conditions: 37°C, 24 h; for effect on electrophoretic mobility of pUC19 forms (SC, OC, L): 0.23-2.30 μM. As to the method:
Supercoiled pUC19 plasmid dsDNA (2686 bp, 1750 kDa) was isolated from Escherichia coli TOP10F’ by QIAprep Spin Miniprep Kit (Qiagen, Germany). The concentration and purity of the isolated plasmid DNA were evaluated spectrophotometrically. Plasmid was dissolved in nuclease-free water and stored at –20°C.
2 μL of these solutions were added to 18 μL of the pUC19 plasmid DNA water solution (300 ng per reaction, corresponding to a concentration of 23 μM calculated for the base pairs) and the mixture was left to react in the final 10% DMF/90% water solution containing the final concentrations of the complexes of 2.30, 1.15 and 0.23 μM, corresponding to 0.10, 0.05 and 0.01 metal-to-base pair stoichiometry. In parallel, the experiment was performed on plasmid DNA in the 10% DMF/90% water solution and in water. The reaction mixtures were incubated at 37°C for 24 h. An electrophoretic mobility was evaluated by gel electrophoresis ([…], 3 h) performed on a 0.8% (w/v) agarose gel containing EtBr (2.0 mg/L (w/v)) at ambient temperature in Tris-acetate/EDTA buffer. The bands on the obtained electrophoretogram were detected by an MUV21-CP-02 gel scanner (Major Science) and analysed with AlphaEaseFC software (version 4.0.0.34, Alpha Innotech) in order to evaluate the relative percentages of the SC, OC and L forms. Each experiment was performed in triplicate.

For series [4], the system named is HeLa cervix carcinoma cells. The series can be described thus: In vitro cytotoxicity testing (MTT assay), HeLa. The class given is cell-based, human. To be noted: 24 h drug exposure, no recovery, read-out: IC50±SD, HeLa. As to the method: as §1, §2, §3
The test system of series [5] is G361 malignant melanoma cells. The series can be described thus: In vitro cytotoxicity testing (MTT assay), G361. Conditions: 24 h drug exposure, no recovery, read-out: IC50±SD, G361. The class given is cell-based, human. How it is done: as §1, §2, §3
The next series relates to MCF7 cells. The series can be described thus: Cell cycle analysis (PI/RNase, flow cytometry), MCF7. The class given is cell-based, human. Conditions: MCF7, 24 h, IC50 concentration.

Method for MCF7 cells: The A2780 and MCF7 cells (1.0 × 10^6 per well) were pre-incubated in a six-well plate for 24 h as described above. […] After 24 h, floating cells were collected and attached cells were harvested using trypsin/EDTA in PBS. Total cells were washed twice with PBS and fixed in 70% ethanol. Cells were re-suspended in PBS and DNA staining was achieved by a solution of propidium iodide (PI) supplemented with RNase A (30 min, 25°C, in the dark). […] The data were analysed using CytExpert™ software (Beckman Coulter).

As for `Cc1cc2c(Cl)cc[n+]([Pt-2]([I])([I])[n+]3ccc(Cl)c4cc(C)[nH]c43)c2[nH]1` [Complex 8, cis-[PtI2(2Me4Claza)2]], in series [1], the “tolerability / signs of toxicity (e.g. weight loss)” value was “well-tolerated”, the “percentage of mean survival time T/C” value came out at 109% and the “mean survival time ± SD” value was 19.0 ± 2.4 days. For the same molecule, the “level of active form of Cas-3 in tumour tissue” value (“level” below) in series [2] was “dramatically increased”. For the same molecule, in the series on calf thymus DNA (ctDNA), the “Stern-Volmer quenching constant KSV” value is 1.4 × 10^4 M^–1 and the “apparent binding constant Kapp” value is 1.2 × 10^5 M^–1. Besides, in series [3], the concentration for half-maximal inhibition (IC50) came to 3.5 ± 0.2 µM. Besides, in the series on HOS osteosarcoma cells, the IC50 worked out at 0.7 ± 0.2 µM, the “selectivity factor IC50(Hep)/IC50(cancer cell line)” value is reported as ~14 and the “times more potent than cisplatin” value is reported as ≤ 47 times. Also, in the series with pUC19 plasmid dsDNA, the “effect on electrophoretic mobility of pUC19 forms (SC, OC, L)” value (shortened to “effect on electrophoretic mobility”) was “did not significantly change the mobility”. Besides, the “amount of damaged OC and linear (L) forms of pUC19 DNA” value in the series with pUC19 plasmid dsDNA (concentration-dependent) is listed as “visibly increased”. For the same molecule, in series [4], the concentration for half-maximal inhibition (IC50) stood at 3.8 ± 0.1 µM. Besides, the half-maximal inhibitory concentration (IC50) in series [5] amounted to 1.7 ± 1.3 µM. Besides, in the series on MCF7 cells, the G0/G1 population was found to be 64.5±3.3%, the G2/M population stood at 25.4±2.6%, the S population is on record as 8.9±2.1% and the sub-G1 population was 1.2±0.4%.
Take `N.N.[Cl][Pt][Cl]` [Cisplatin, cisplatin, reference compound]: in series [1], the “percentage of mean survival time T/C” value came to 108% and the “mean survival time ± SD” value is 18.8 ± 2.4 days. This molecule displayed a maximum tolerated dose in series [1] (mice) of 2 mg/kg. Besides, the “level” value in [2] was “has not been observed”. Further, in the series with calf thymus DNA (ctDNA), the “Stern-Volmer quenching constant KSV” value is 4.7 × 10^3 M^–1 and the “apparent binding constant Kapp” value is 4.8 × 10^4 M^–1. For the same molecule, the half-inhibitory concentration (IC50) in series [3] is > 50 µM. Also, the IC50 with HOS osteosarcoma cells was 18.9 ± 1.7 µM. In addition, the “effect on electrophoretic mobility” value in the series on pUC19 plasmid dsDNA is “increase the electrophoretic mobility”. For the same molecule, the IC50 in series [4] worked out at 30.4 ± 11 µM. In addition, in series [5], the IC50 worked out at 5.3 ± 0.7 µM. In the series with MCF7 cells, this molecule displayed a G0/G1 population of 33.4±2.8%, a G2/M population of 38.2±1.9%, a S population of 26.3±1.9% and a sub-G1 population of 1.6±0.2%.
Consider `Brc1cc[n+]([Pt-2]([I])([I])[n+]2ccc(Br)c3cc[nH]c32)c2[nH]ccc12` [Complex 6, cis-[Pt(4Braza)2I2]], for which, in series [1], the “tolerability / signs of toxicity (e.g. weight loss)” value is on record as “well-tolerated”, the “percentage of mean survival time T/C” value is listed as 99% and the “mean survival time ± SD” value is 17.3 ± 2.1 days. In addition, the “level” value in series [2] is recorded as “has not been observed”. Also, in the series with calf thymus DNA (ctDNA), the “Stern-Volmer quenching constant KSV” value is on record as 7.4 × 10^3 M^–1 and the “apparent binding constant Kapp” value is reported as 7.8 × 10^4 M^–1. The concentration for half-maximal inhibition (IC50) in [3] is 4.3 ± 0.9 µM. Moreover, in the series with HOS osteosarcoma cells, the 50% inhibitory concentration (IC50) came out at 0.4 ± 0.1 µM, the “selectivity factor IC50(Hep)/IC50(cancer cell line)” value is recorded as ~10 and the “times more potent than cisplatin” value is given as ≤ 47 times. Moreover, the “effect on electrophoretic mobility” value in the series with pUC19 plasmid dsDNA was “did not significantly change the mobility”. In [4], the concentration for half-maximal inhibition (IC50) came out at 3.8 ± 0.2 µM. In series [5], the IC50 was determined as 3.2 ± 0.2 µM. Also, in the series on MCF7 cells, the G0/G1 population is on record as 73.9±4.6%, the G2/M population amounted to 16.6±2.1%, the S population was 7.2±1.6% and the sub-G1 population came out at 1.5±0.4%.

Broadly, the IC50 is the concentration needed to halve the response being measured.
